# Data from patent US20050245465A1, “Compounds for treating Alzheimer's disease and for inhibiting beta-amyloid peptitde production” (priority 2004, published 2005).
# Entries after “also recorded” stand apart in the source; their conditions may differ. Like-named read-outs stand apart in the source and are kept apart here.
# Legend:
# CHO cells = experiment: Cell viability of treated CHO cells; format: cell-based, Chinese hamster
# Protocol: (§1) CHO-APP/PS1 (A) and CHO-APP/ΔE9PS1 (B) cells were treated with the indicated compounds at 50 μM for 8 hrs and the levels of secreted Aβ40 and Aβ42 were determined as described in FIG. 1. […] The PS1-ΔE9 FAD mutation diminished the Aβ42 response to Rk1 treatment (B).
# Tables 1-3 Structure of ginsenosides utilized in the study and their effects on Aβ42 generation. They differ at the two or three side chains attached to the common triterpene backbone known as dammarane. The common structure skeleton for each group of ginsenosides is shown in the top panel. Ginsenosides that harbor Aβ42-lowering activity are indicated in the far right column of the tables: Aβ42-lowering activity (“Yes”), no profound effects (“No”), and non-determined (“ND”). Ginsenosides that affected cell viability are indicated as “Cytotoxic.” Abbreviation for carbohydrates are as follows: Glc, D-glucopyranosyl; Ara (pyr), L-arabinopyranosyl; Ara (fur), L-arabinofuranyosyl; Rha, L-rhamnopyranosyl.
# Steaming ginseng at high temperature gave rise to additional ginsenosides with enhanced pharmacological activity, including (20S)Rg3, Rk1 and Rg5 (22-25). Next, the effects of these heat-processing derived ginsenosides (e.g., (20S)Rg3, Rh1, Rh2, Rk1, Rg6, Rg5) on Aβ40 and Aβ42 generation were tested. […] In contrast, Aβ42 levels were not affected by (20R)Rg3, Rh1, and Rg6. […]
# CHO-APP/PS1 cells = experiment: Secreted Aβ40/Aβ42 ELISA in CHO-APP/PS1 cells; format: cell-based, Chinese hamster
# Protocol: (§2) FIG. 10 depicts the effects of native ginsenosides on Aβ42 production. CHO cells stably transfected with human APP695 together with either wild-type (A, CHO-APP/PS1 cells) or ΔE9 FAD mutant (B, CHO-APP/ΔE9PS1 cells) forms of PS1 were used. Cells were treated with the indicated compounds (at 50 μM) for 8 hrs. Levels of secreted Aβ40 and Aβ42 in the medium were determined by ELISA and normalized to intracellular full-length APP. In CHO-APP/PS1 cells, average Aβ amounts in control samples were 320 pM for Aβ40 and 79 pM for Aβ42. The relative levels of Aβ and Aβ42 were normalized to values obtained from non-treated and vehicle-treated cells and are shown as % to control+s.d.). One of three representative experiments are shown.
# as §1
# γ-secretase [1] = experiment: Cell-free generation of intracellular domains (AICD, NICD, p75-ICD) in membrane fractions of 293 cells; format: biochemical; conditions: membrane fractions from 293 cells overexpressing APP, Notch-ΔE or p75-ΔE
# Protocol: Membrane fractions isolated from 293 cells overexpressing either APP (A), Notch-ΔE (B) or p75-ΔE (C) and incubated in the presence of indicated compounds: Compound E (CpdE, general γ-secretase inhibitor), Rgk351, Rk1 and sulindac sulfide (SS).
# Since the effect of Rk1 was rather selective to Aβ42 (but not Aβ40) in a cell-based assay, the question of whether Rk1 affects other γ-secretase-mediated cleavage events, including the generation of AICD resulted from a transmembrane cleavage of APP distal from either Aβ40 or Aβ42 site, and γ-secretase-mediated intramembrane cleavage of Notch1 or p75 neurotrophin receptor (p75NTR) to yield Notch1 or p75NTR intracellular domains (NICD or p75-ICD, respectively) was tested. The cell-free generation of AICD, NICD and p75-ICD was not affected by incubation with Rgk351 or Rk1 (FIG. 5).
# γ-secretase [2] = experiment: Cell-free γ-secretase assay (CHAPSO-solubilized membrane fractions, Aβ ELISA); format: biochemical
# Protocol: (A) CHAPSO-solubilized membrane fractions were incubated with recombinant γ-secretase substrates together with the indicated compounds (at 100 μM) and the levels of Aβ42 and Aβ40 were determined by ELISA as described (27-29). (B) Dose-response of Aβ40 and Aβ42-lowering activity of Rk1 and (20S)Rg3 in a cell-free γ-secretase assay.
# Next, the inhibitory effects of Rk1 and (20S)Rg3 on Aβ generation in an in vitro γ-secretase assay was studied. […] In contrast, naproxen, an NSAID without Aβ42-lowering activity, had no effects on Aβ42 production (FIG. 15A).
# [3] = test system: CHO cells expressing human APP; experiment: Secreted Aβ40/Aβ42 ELISA in medium of CHO-APP cells; format: cell-based, Chinese hamster; parameters: key to Aβ42-lowering activity: Aβ42-lowering activity (“Yes”); no profound effects (“No”); non-determined (“ND”); Ginsenosides that affected cell viability are indicated as “Cytotoxic.”
# Protocol: The CHO cells were treated with the indicated compounds (at 50 μg/ml) for 8 hrs. Aβ42 levels in the medium were measured by ELISA and normalized to intracellular full-length APP.
# The potential effects of ginsenosides and their analogues in treating AD were examined. First, a number of ginsenosides were screened based on their effects on Aβ generation. The effects of various ginsenosides on Aβ (e.g., Aβ40 and Aβ42) production was initially accessed by incubating the Chinese hamster ovary (CHO) cells expressing human APP(CHO-APP cells) with each ginsenoside purified from unprocessed ginseng (known as “white ginseng”). These representative ginsenosides included Rb1, Rb2, Rc, Rd, Re, Re, Rg1 and Rg2 and differ in their side chains and sugar moieties.
# After 8 hours of incubation, the media were collected and the levels of secreted Aβ40 and Aβ42 were determined by ELISA.
# Steaming ginseng at high temperature gave rise to additional ginsenosides with enhanced pharmacological activity, including (20S)Rg3, Rk1 and Rg5 (22-25). Next, the effects of these heat-processing derived ginsenosides (e.g., (20S)Rg3, Rh1, Rh2, Rk1, Rg6, Rg5) on Aβ40 and Aβ42 generation were tested. […] In contrast, Aβ42 levels were not affected by (20R)Rg3, Rh1, and Rg6. Aβ40 levels were not changed by treatment with any of the ginsenosides tested. The potency of Aβ42-lowering activity was highest with Rk1 and (20S)Rg3. […] The secretion of Aβ40 was affected by treatment with Rk1 only at very high concentration (˜100 μM) and cell viability was not affected by treatment of Rk1 under these conditions (up to 100 μM, 8 hour treatment; data not shown). […] Overnight treatment with Rgk351, Rk1, and Rg5 also reduce Aβ42 production in CHO-APP cells (FIG. 12B). […] These studies provide a structure-activity relationship between the chemical structures of ginsenosides and Aβ42-lowering activity, further providing the basis for designing additional Aβ42-lowering analogues as well as for defining a class of compounds that harbor Aβ42-lowering activity.
# CHO-APP/ΔE9PS1 cells = experiment: Secreted Aβ40/Aβ42 ELISA in CHO-APP/ΔE9PS1 cells; format: cell-based, Chinese hamster; conditions: 50 μM, 8 hrs
# Protocol: as §2, §1
# Steaming ginseng at high temperature gave rise to additional ginsenosides with enhanced pharmacological activity, including (20S)Rg3, Rk1 and Rg5 (22-25). Next, the effects of these heat-processing derived ginsenosides (e.g., (20S)Rg3, Rh1, Rh2, Rk1, Rg6, Rg5) on Aβ40 and Aβ42 generation were tested. […] In contrast, Aβ42 levels were not affected by (20R)Rg3, Rh1, and Rg6. Aβ40 levels were not changed by treatment with any of the ginsenosides tested. The potency of Aβ42-lowering activity was highest with Rk1 and (20S)Rg3. […] The secretion of Aβ40 was affected by treatment with Rk1 only at very high concentration (˜100 μM) and cell viability was not affected by treatment of Rk1 under these conditions (up to 100 μM, 8 hour treatment; data not shown). […] Overnight treatment with Rgk351, Rk1, and Rg5 also reduce Aβ42 production in CHO-APP cells (FIG. 12B). […]
# APP = experiment: Western blot of APP processing in CHO-APP and Neuro2a-APPsw cells; format: cell-based, Chinese hamster and mouse; conditions: cell lysates
# Description: FIG. 13. depicts an analysis of APP processing after Rk1 treatment. Steady-state levels of full-length APP and APP C-terminal fragments (APP-CTFs) were examined by Western blot analysis using anti-R1 antibody. […] Correlated Aβ42 levels for each sample are shown in the bottom panel.
# [4] = test system: primary embryonic cortical neurons derived from Tg2576 transgenic mice; experiment: Aβ40 and Aβ42 secretion in primary embryonic cortical neurons; format: cell-based
# Description: Treatment of Rk1 and Rg3 decreased the level of secreted Aβ40 and Aβ42.
# CHO-APP cells = experiment: Mass spectrometric analysis of Aβ species from CHO-APP cells; format: cell-based, Chinese hamster; conditions: mass spectrometry, vs DMSO
# Protocol: Note that treatment leads to a decrease in Aβ42 species (1-42), and elevation in both Aβ37 (1-37) and Aβ38 (1-38). Mass spectrometric analysis of Aβ species were performed as previously described (Wang R, Sweeny D, Gandy S E, Sisodia S S. The profile of soluble amyloid β-protein in cultured cell media. J. Bio. Chem. 1996; 271: 31894-31902).
# [5] = overnight treatment, CHO-APP cells
structure (smiles),measurement,setting,value
CC(C)=CCC[C@](C)(O)[C@H]1CC[C@]2(C)[C@@H]1[C@H](O)C[C@@H]1[C@@]3(C)CC[C@H](O[C@@H]4O[C@H](CO)[C@@H](O)[C@H](O)[C@H]4O)C(C)(C)[C@@H]3CC[C@]12C [Rh2],cell viability,CHO cells; 50 μM treatment,partially affected
same,Aβ42-lowering effects,"CHO-APP/PS1 cells; 50 μM, 8 hrs",exhibited Aβ42-lowering effects
C=C(CCC=C(C)C)[C@H]1CC[C@]2(C)[C@@H]1[C@H](O)C[C@@H]1[C@@]3(C)CC[C@H](O[C@@H]4O[C@H](CO)[C@@H](O)[C@H](O)[C@H]4O[C@@H]4O[C@H](CO)[C@@H](O)[C@H](O)[C@H]4O)C(C)(C)[C@@H]3CC[C@]12C [Rk1],cell viability,"CHO cells; up to 100 μM, 8 hour treatment",not affected
same,"cell-free generation of AICD, NICD and p75-ICD",γ-secretase [1],does not significantly affect; also recorded: not affected
same,Aβ42 generation in vitro,"γ-secretase [2]; cell-free γ-secretase assay, partially purified γ-secretase complex, 100 μM",inhibit; also recorded: potently inhibited
same,IC50,"γ-secretase [2]; cell-free γ-secretase assay, read-out: IC50 for Aβ40",27 ± 3 µM
same,IC50,"γ-secretase [2]; cell-free γ-secretase assay, read-out: IC50 for Aβ42",32 ± 5 µM
same,Aβ40 and Aβ42 generation in cell-free γ-secretase assay,γ-secretase [2]; dose-response,inhibits; also recorded: inhibited both Aβ40 and Aβ42 with a similar potency
same,potency of Aβ42-lowering activity (comparison among ginsenosides),[3],most effective; also recorded: highest
same,concentration at which secretion of Aβ40 was affected,[3]; 8 hour treatment,~100 µM
same,"Aβ42 in the medium, dose-dependence",[3]; CHO cells expressing human APP,reduced; also recorded: lower Aβ42 in a dose-dependent manner
same,"generation of Aβ42 (Aβ42 levels in the medium, ELISA, normalized to intracellular full-length APP)","[3]; CHO cells stably transfected with human APP695, 50 μg/ml, 8 hrs",reduce
same,Aβ42 vs. Aβ40 in the medium (preference),"[3]; CHO-APP cells, normalized to non-treated and vehicle-treated cells",preferentially reduced Aβ42 (vs. Aβ40); also recorded: preferentially lowers Aβ42 (vs. Aβ40)
same,IC50,"[3]; CHO-APP cells, read-out: IC50 of Aβ42 lowering activity",~20 µM
same,Aβ42-lowering activity,[3]; Tables 1-3,Yes
same,secretion of Aβ42 (initial screening),[3]; heat-processing derived ginsenosides,selectively lowered
same,production of Aβ42 in cells (summary statement),"[3]; mammalian cells, in vitro",lower
same,Aβ40 production,[3]; [5],slightly affected
same,Aβ42 production,[3]; [5],reduce
same,Aβ42-lowering response in PS1 ΔE9 FAD mutant cells vs PS1 wild-type cells,CHO-APP/ΔE9PS1 cells,diminished
same,potency of Aβ42-reducing activity (order),"CHO-APP/PS1 cells; 50 μM, 8 hrs",Rk1>/=(20S)Rg3>Rg5>(20R)Rg3
same,Aβ42 levels,"CHO-APP/PS1 cells; CHO cells co-expressing human APP with wild-type PS1 or FAD mutant PS1 (delta E9, L286V)",reduced
same,full-length APP levels,APP,not affected; also recorded: did not affect
same,APP C-terminal fragments (γ-secretase substrates),APP; CHO-APP and Neuro2a APPsw cells,increased accumulation; also recorded: up-regulated
same,level of secreted Aβ40 and Aβ42,[4],decreased
same,Aβ37 (1-37) and Aβ38 (1-38),CHO-APP cells,elevation
same,Aβ42 species (1-42),CHO-APP cells,decrease
